Experimental data from US20090012170A1, “TREATMENT OF SYMPTOMS OF MOTOR DYSFUNCTION” (priority 2005, published 2009).

Tested on: PD patients
Assay: Pooled analysis of three double blind, placebo-controlled studies and their open-label extensions: earlier vs. delayed start of entacapone adjunct to levodopa/DDC inhibitor
Type: in vivo, human
Procedure: A study was carried out to evaluate the effect of earlier vs. delayed start of entacapone adjunct to traditional levodopa/DDC inhibitor treatment on the long-term Parkinson's disease symptom control up to 5 years.
Analysis of pooled data of three pivotal double blind, placebo-controlled studies, and their respective long-term open-label extension studies up to 5 years on entacapone adjunct to optimised levodopa/DDC inhibitor and other PD treatment.
A total of 488 PD patients, of whom 269 were on entacapone and 219 on placebo during the 6-month double blind phase, continued with open entacapone treatment in the long-term extension phases up to 5 years. UPDRS III assessment and the mean daily levodopa dose were reported until the point when a minimum of 10 patients in each treatment arm was available, i.e. up to five years.

CCN(CC)C(=O)/C(C#N)=C/c1cc(O)c(O)c([N+](=O)[O-])c1 [entacapone, (E)-2-cyano-3-(3,4-dihydroxy-5-nitrophenyl)-N-diethyl-2 propenamide]
decrease of mean daily levodopa dose after initiation of open entacapone (delayed start group, comparable with the decrease in the earlier start group at the beginning of the double-blind phase, thereafter below baseline in both groups): about 70 mg
mean difference in UPDRS III over time between the earlier and delayed start treatment groups (entacapone adjunct to levodopa/DDC inhibitor, earlier vs 6 months delayed start, up to 5 years, 95%CI [−3.01, −0.31], repeated measures analysis, p<0.05): −1.66
